Measured values published in article PMC8400955 (Pharmaceuticals, 2021).
Read-outs that look alike come from different tables or passages of the source.

Key:
CYP2B6 = molecular target: T1, CYP2B6 (Homo sapiens, UniProt P20813); assay: CYP phenotyping, recombinant CYP2B6
T1 sequence (P20813 1-491): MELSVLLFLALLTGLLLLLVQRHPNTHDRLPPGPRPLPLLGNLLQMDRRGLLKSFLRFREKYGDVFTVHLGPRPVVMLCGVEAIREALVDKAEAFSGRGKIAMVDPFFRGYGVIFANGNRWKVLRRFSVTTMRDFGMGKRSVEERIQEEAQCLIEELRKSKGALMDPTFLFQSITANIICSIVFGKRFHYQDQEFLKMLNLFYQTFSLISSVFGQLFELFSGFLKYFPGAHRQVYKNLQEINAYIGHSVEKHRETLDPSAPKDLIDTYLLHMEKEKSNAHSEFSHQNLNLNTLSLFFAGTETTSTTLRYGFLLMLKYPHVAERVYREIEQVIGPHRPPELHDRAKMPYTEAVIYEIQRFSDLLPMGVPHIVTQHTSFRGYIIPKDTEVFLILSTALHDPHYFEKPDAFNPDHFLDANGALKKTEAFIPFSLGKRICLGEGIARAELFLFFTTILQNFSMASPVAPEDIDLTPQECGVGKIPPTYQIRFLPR
Experimental: Bactosomes prepared from E. coli that heterologously expressed individual human CYP isoforms together with human CYP reductase were obtained from CYPEX LTD (Scotland, UK), and stored at −80 °C prior to use. […] Timepoints were taken at 0, 5, 10, 15, 20, and 30 min. Substrate disappearance was used to calculate intrinsic clearance (Clint) and half-life (t1/2). All incubations were performed in triplicate. […] The chemical inhibitors for CYP1A2, 2A6, 2B6, 2C8, 2C9, 2C19, 2D6, and 3A4 were furafylline, tranylcypromine, ticlopidine, montelukast, sulfaphenazole, N-3-benzylnirvanol, quinidine, and ketoconazole, respectively. Timepoints were collected at 0, 15, 30, 45, and 60 min, and the remaining percentage of the parent drug at each timepoint was calculated (the calculation details are available in the Supplementary Materials). All incubations were performed in triplicate.
1.3.1 Intrinsic Clearance (Heterologously Expressed Human Cytochrome P450) All calculations were carried out using Microsoft Excel. The slope, k, was determined by linear regression of the natural logarithm of percent parent disappearance vs. incubation time curve. Peak areas for test article and internal standard were determined from extracted ion chromatograms. The peak area ratio was used to calculated for the results.
The half-life value (t1/2 rCYPi) was determined from the slope value: […]

[1] = 7-day repeated-dose PK in rats; assay type: in vivo, Sprague Dawley rats; settings: rat, plasma
Experimental: Groups of Sprague Dawley rats (n = 5/sex/group; n = 3/sex/TK group) were orally administered ZB716 (20% PG, 5% Solutol, and 75% of 40% HP-β-CD in DI water) at dose levels of 10, 100, and 400 mg/kg/day for 7 days. […] Systemic exposure, expressed as Cmax and AUClast values, increased with dose in a less than dose-proportional manner on days 1 and 7 (Figure 2). A slight gender difference was observed; generally, systemic exposures were higher in females than in males (male/female AUClast ratio = 0.442:0.883). Accumulation was observed only in male animals given 400 mg/kg/day.
Four-to-six-week-old Sprague Dawley rats (Crl: CD (SD)) (SPF/VAF) were purchased from Beijing Vital River Laboratory Animal Technology, Co. Ltd.). Six-month-old beagle dogs were purchased from Beijing Marshall Biotechnology Co. Ltd. Animals were quarantined/acclimated for 2–6 weeks prior to dose initiation. Both Sprague Dawley rats and beagle dogs were given oral administration of ZB716 (20% PG, 5% Solutol, and 75% of 40% HP-β-CD in water) at different dose levels. After treatment with the test articles, whole blood was collected from each study animal by puncture of the tail vein (0.4 mL of whole blood from rats) and/or the peripheral vein (0.6 mL of whole blood from dogs) into tubes containing K2EDTA at each timepoint: pre-dose, and 0.5, 1, 2, 4, 8, and 24 h post-dose. The plasma samples were divided into 2 aliquots (approximately equal in volume) and stored frozen at −75 ± 15 °C within 2 h of the collection until analysis at Pharmaron, China.
The stock solution of ZB716 (5.0 mg/mL) and ZB716-d6 (1 mg/mL) in ACN:DI Water = 1:1 was prepared and stored at −20 ± 5 °C. The desired serial concentrations of working reference analyte solutions were achieved by diluting a stock analyte solution with 50% acetonitrile (0.1% formic acid) in water solution. The bioanalytical LC–MS/MS method was validated for quantitative determination of ZB716 in Sprague Dawley rat plasma and beagle dog plasma, with acceptable selectivity, sensitivity, calibration curve, precision, and accuracy. This method is applicable for the determination of ZB716 in Sprague Dawley rat plasma and beagle dog plasma, with a lower limit of quantification of 20.0 ng/mL, and an upper limit of quantification of 10,000 ng/mL.
Five microliters of diluted supernatant was injected into the LC–MS/MS system (Shimadzu LC30AD HPLC system with a SynergiTM 4 μm Fusion-RP 80 Å (50 × 2 mm) column using gradient elution and a Triple Quad 5500 mass spectrometer) for quantitative analysis. The mobile phases used were 0.1% formic acid in deionized water and 0.1% formic acid in acetonitrile. The pharmacokinetic parameters T1/2 (the biological half-life), Cmax (maximal concentration), Tmax (time at which Cmax is observed), and AUC (area under the plasma concentration–time curve) were calculated from the plasma concentration versus time data using WinNonlin (Phoenix^TM, version 8.1, Mountain View, CA, USA). All PK studies were conducted by Pharmaron in Beijing, China.

[2] = female, Sprague Dawley (Crl: CD (SD)), po, 400 mg/kg/day, day 1, PO 400 mg/kg/day, F
[3] = female, Sprague Dawley, po, 10 mg/kg/day, day 1, PO 10 mg/kg/day, F
[4] = female, Sprague Dawley, po, 10 mg/kg/day, day 7, PO 10 mg/kg/day, F
[5] = female, Sprague Dawley, po, 100 mg/kg/day, day 7, PO 100 mg/kg/day, F
[6] = female, Sprague Dawley, po, 400 mg/kg/day, day 7, PO 400 mg/kg/day, F
[7] = male, Sprague Dawley (Crl: CD (SD)), po, 10 mg/kg/day, day 7, PO 10 mg/kg/day, M
[8] = male, Sprague Dawley (Crl: CD (SD)), po, 400 mg/kg/day, day 1, PO 400 mg/kg/day, M
[9] = male, Sprague Dawley, po, 10 mg/kg/day, day 1, PO 10 mg/kg/day, M
[10] = male, Sprague Dawley, po, 100 mg/kg/day, day 1, PO 100 mg/kg/day, M
[11] = male, Sprague Dawley, po, 100 mg/kg/day, day 7, PO 100 mg/kg/day, M
[12] = male, Sprague Dawley, po, 400 mg/kg/day, day 7, PO 400 mg/kg/day, M

In the case of `C[C@]12CC[C@@H]3c4ccc(B(O)O)cc4C[C@@H](CCCCCCCCC[S+]([O-])CCCC(F)(F)C(F)(F)F)[C@H]3[C@@H]1CC[C@@H]2O` (stereo partly shown) [ZB716, fulvestrant-3-boronic acid], the half-life at 2 µM (CYP2B6; human) is reported as 41 ± 6.8 min, the Clint (CYP2B6; recombinant CYP2B6, 2 µM ZB716) is reported as 0.343 ± 0.052 µL/min/pmol CYP and the Tmax ([1]; both sexes, Sprague Dawley, oral, 100 mg/kg/day, 10 and 100 mg/kg/day, day 1 and day 7, mostly, read-out: Tmax) is reported as 30 to 60 min. For the same molecule, the Tmax ([1]; both sexes, Sprague Dawley, oral, 400 mg/kg/day, day 1 and day 7, read-out: Tmax) was at most 480 min, the AUC(0-t) ([1]; female, Sprague Dawley (Crl: CD (SD)), po, 100 mg/kg/day, day 1, PO 100 mg/kg/day, F) was 26700 ng·h/mL and the AUC(0-t) [1, 2] was 27900 ng·h/mL. For the same molecule, the Cmax [1, 2] was 2770 ng/mL, the Tmax ([1]; female, Sprague Dawley (Crl: CD (SD)), po, 400 mg/kg/day, day 1, PO 400 mg/kg/day, F, read-out: Tmax (median)) was 480 min and the AUC(0-t) [1, 3] was 1760 ng·h/mL. The Cmax [1, 3] was 459 ng/mL, the Tmax ([1]; female, Sprague Dawley, po, 10 mg/kg/day, day 1, PO 10 mg/kg/day, F, read-out: Tmax (median)) was 30 min and the AUC(0-t) [1, 4] was 2820 ng·h/mL. It also gave a Cmax [1, 4] of 710 ng/mL, a Tmax ([1]; female, Sprague Dawley, po, 10 mg/kg/day, day 7, PO 10 mg/kg/day, F, read-out: Tmax (median)) of 30 min and a Cmax ([1]; female, Sprague Dawley, po, 100 mg/kg/day, day 1, PO 100 mg/kg/day, F) of 3350 ng/mL. It also gave a Tmax ([1]; female, Sprague Dawley, po, 100 mg/kg/day, day 1, PO 100 mg/kg/day, F, read-out: Tmax (median)) of 60 min, an AUC(0-t) [1, 5] of 20700 ng·h/mL and a Cmax [1, 5] of 2750 ng/mL. The Tmax ([1]; female, Sprague Dawley, po, 100 mg/kg/day, day 7, PO 100 mg/kg/day, F, read-out: Tmax (median)) was 30 min, the AUC(0-t) [1, 6] was 37100 ng·h/mL and the Cmax [1, 6] was 3710 ng/mL. For the same molecule, the Tmax ([1]; female, Sprague Dawley, po, 400 mg/kg/day, day 7, PO 400 mg/kg/day, F, read-out: Tmax (median)) was 30 min, the AUC(0-t) [1, 7] was 2260 ng·h/mL and the Cmax [1, 7] was 322 ng/mL. The Tmax ([1]; male, Sprague Dawley (Crl: CD (SD)), po, 10 mg/kg/day, day 7, PO 10 mg/kg/day, M, read-out: Tmax (median)) was 60 min, the AUC(0-t) [1, 8] was 15200 ng·h/mL and the Cmax [1, 8] was 1920 ng/mL. For the same molecule, the Tmax ([1]; male, Sprague Dawley (Crl: CD (SD)), po, 400 mg/kg/day, day 1, PO 400 mg/kg/day, M, read-out: Tmax (median)) was 480 min, the AUC(0-t) [1, 9] was 1320 ng·h/mL and the Cmax [1, 9] was 365 ng/mL. For the same molecule, the Tmax ([1]; male, Sprague Dawley, po, 10 mg/kg/day, day 1, PO 10 mg/kg/day, M, read-out: Tmax (median)) was 30 min, the AUC(0-t) [1, 10] was 11800 ng·h/mL and the Cmax [1, 10] was 1420 ng/mL. For the same molecule, the Tmax ([1]; male, Sprague Dawley, po, 100 mg/kg/day, day 1, PO 100 mg/kg/day, M, read-out: Tmax (median)) was 30 min, the AUC(0-t) [1, 11] was 12900 ng·h/mL and the Cmax [1, 11] was 1610 ng/mL. The Tmax ([1]; male, Sprague Dawley, po, 100 mg/kg/day, day 7, PO 100 mg/kg/day, M, read-out: Tmax (median)) was 30 min, the AUC(0-t) [1, 12] was 32700 ng·h/mL and the Cmax [1, 12] was 2340 ng/mL. It also gave a Tmax ([1]; male, Sprague Dawley, po, 400 mg/kg/day, day 7, PO 400 mg/kg/day, M, read-out: Tmax (median)) of 480 min.
